Source: the NIST ThermoML archive (doi:10.1016/j.jct.2017.07.014)

Test: molar heat capacity at constant pressure; xn = mol fraction of the nth substance listed
Details: 102.6 kPa, Liquid, Large sample (1 g) DSC, x1 = 0.107

CCCCn1cc[n+](C)c1.F[P-](F)(F)(F)(F)F [1-butyl-3-methylimidazolium hexafluorophosphate] + CCO
Details	molar heat capacity at constant pressure [J/K/mol]
314.31 K	176.72
314.64 K	177.08
314.97 K	177.44
315.29 K	177.86
315.62 K	178.15
315.94 K	178.8
316.27 K	179.08
316.59 K	179.58
316.92 K	179.87
317.24 K	180.44
317.57 K	180.87
317.89 K	181.23
318.22 K	181.8
318.55 K	182.3
318.87 K	182.66
319.19 K	183.3
319.52 K	183.87
319.85 K	184.38
320.17 K	184.88
320.5 K	185.38
320.82 K	186.02
321.15 K	186.45
321.47 K	187.09
321.8 K	187.95
322.12 K	188.6
322.45 K	189.38
322.77 K	190.17
323.1 K	190.89
323.42 K	191.96
323.75 K	192.96
324.07 K	194.61
324.4 K	195.89
324.73 K	198.26
325.05 K	201.76
325.38 K	205.34
325.7 K	210.28
326.03 K	181.08
326.35 K	178.08
326.68 K	176.79
327 K	175.93
327.33 K	175.36
327.65 K	174.93
327.98 K	174.57
328.31 K	174.36
328.63 K	174.29
328.96 K	174.07
329.28 K	173.93
329.61 K	173.79
329.93 K	173.72
330.26 K	173.64
330.58 K	173.57
330.91 K	173.5
331.23 K	173.43
331.56 K	173.43
331.88 K	173.43
332.21 K	173.43
332.53 K	173.29
332.86 K	173.43
333.19 K	173.43
333.51 K	173.43
333.84 K	173.36
334.16 K	173.5
334.49 K	173.57
334.81 K	173.72
335.14 K	173.86
335.46 K	174.22
335.78 K	173.72
336.09 K	173.29
336.38 K	173.07
336.76 K	172.93
337.09 K	172.79
337.41 K	173.5
337.74 K	174.07
338.06 K	174.07
338.39 K	174.14
338.72 K	174.43
339.05 K	174.22
339.35 K	174.07
339.69 K	174.72
340.04 K	174.72
340.35 K	175.07
340.66 K	175.58
340.99 K	175.29
341.32 K	175.07
341.64 K	175
341.98 K	175.29
342.3 K	174.93
342.6 K	175.58
